A value given as a limit tells only on which side of the number the result lay.

In the experiment the target is MAPK14 (UniProt Q16539). As to the kind of experiment: Inhibition of MAPK14 Kinase Activity.
Sequence of MAPK14 (Q16539 whole entry, looked up): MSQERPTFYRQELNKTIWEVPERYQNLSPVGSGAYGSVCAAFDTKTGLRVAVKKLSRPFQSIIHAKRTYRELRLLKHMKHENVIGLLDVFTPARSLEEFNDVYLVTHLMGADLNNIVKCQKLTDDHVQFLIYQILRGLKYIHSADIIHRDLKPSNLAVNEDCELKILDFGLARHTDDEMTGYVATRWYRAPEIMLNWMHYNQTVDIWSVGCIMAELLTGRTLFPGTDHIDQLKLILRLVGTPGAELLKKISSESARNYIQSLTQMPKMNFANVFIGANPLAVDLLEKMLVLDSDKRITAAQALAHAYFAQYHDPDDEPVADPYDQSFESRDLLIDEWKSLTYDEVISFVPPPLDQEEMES
Consider `COCCNC(=O)c1ccc(-c2cc(C(=O)NC3CC3)cc(F)c2C)nc1`, for which the IC50 was below 10 µM. In the case of `CCCC(C)NC(=O)c1ccc(-c2cc(C(=O)NC3CC3)cc(F)c2C)nc1` (centres undefined) it was below 10 µM; in that of `Cc1c(F)cc(C(=O)NC2CC2)cc1-c1ccc(C(=O)NC2CCCC2)cn1`, below 10 µM.

`Cc1c(F)cc(C(=O)NC2CC2)cc1-c1ccc(C(=O)N2CCCCC2C)cn1` (centres undefined) returned an IC50 below 10 µM. The same measure for `CCCC1CCCCN1C(=O)c1ccc(-c2cc(C(=O)NC3CC3)cc(F)c2C)nc1` (centres undefined): below 10 µM; for `Cc1c(F)cc(C(=O)NC2CC2)cc1-c1ccc(C(=O)NCc2ccc(F)c(Cl)c2)cn1`: below 10 µM. In the case of `Cc1c(F)cc(C(=O)NC2CC2)cc1-c1ccc(C(=O)NC2CCC2)cn1` it was below 10 µM; in that of `Cc1c(F)cc(C(=O)NC2CC2)cc1-c1ccc(C(=O)NCC2CCC2)cn1`, below 10 µM; in that of `Cc1ccc(CNC(=O)c2ccc(-c3cc(C(=O)NC4CC4)cc(F)c3C)nc2)cc1F`, below 10 µM. Compound `COc1cccc(NC(=O)c2ccc(-c3cc(C(=O)NC4CC4)cc(F)c3C)nc2)c1` returned an IC50 below 10 µM. In the case of `Cc1ccc(NC(=O)c2ccoc2)cc1-c1ccc(C(=O)NCC2CC2)cn1`, the IC50 is below 10 µM. In the case of `Cc1c(F)cc(C(=O)NC2CC2)cc1-c1ccc(C(=O)NCc2ccc(C(F)(F)F)cc2)cn1` it was below 10 µM. `Cc1ccc(NC(=O)c2ccsc2)cc1-c1ccc(C(=O)NCC2CC2)cn1` returned an IC50 below 10 µM. `Cc1c(F)cc(C(=O)NC2CC2)cc1-c1ccc(C(=O)NCc2cccc(F)c2)cn1` showed an IC50 below 10 µM.

`Cc1ccc(C(=O)Nc2nncs2)cc1-c1ccc(C(=O)Nc2ccccc2CN2CCN(C)CC2)cn1` gave an IC50 below 10 µM. The same measure for `Cc1ccc(C(=O)Nc2nccs2)cc1-c1ccc(C(=O)NCc2cccc(NS(C)(=O)=O)c2)cn1`: below 10 µM; for `Cc1c(F)cc(C(=O)NC2CC2)cc1-c1ccc(C(=O)NCCc2ccccc2)cn1`: below 10 µM; for `Cc1c(F)cc(C(=O)NC2CC2)cc1-c1ccc(C(=O)NCc2ccc(F)c(F)c2F)cn1`: below 10 µM.

On to `Cc1c(F)cc(C(=O)NC2CC2)cc1-c1ccc(C(=O)NCCc2nccs2)cn1`, for which the IC50 was below 10 µM.

On to `COc1cccc(CNC(=O)c2ccc(-c3cc(C(=O)Nc4nccs4)ccc3C)nc2)c1`, for which the IC50 is below 10 µM.

Compound `Cc1csc(CCNC(=O)c2ccc(-c3cc(C(=O)NC4CC4)cc(F)c3C)nc2)n1` gave an IC50 below 10 µM. In the case of `Cc1c(F)cc(C(=O)NC2CC2)cc1-c1ccc(C(=O)NCCC(C)C)cn1` it was below 10 µM. The same measure for `Cc1ccc(F)cc1CNC(=O)c1ccc(-c2cc(C(=O)NC3CC3)cc(F)c2C)nc1`: below 10 µM; for `Cc1ccc(C(=O)Nc2nccs2)cc1-c1ccc(C(=O)NCC2CC2)cn1`: below 10 µM; for `COc1ccc(NC(=O)c2ccc(-c3cc(C(=O)NCC4CC4)ccc3C)nc2)cc1`: below 10 µM. With `Cc1c(F)cc(C(=O)NC2CC2)cc1-c1ccc(C(=O)NCc2cc(F)c(F)c(F)c2)cn1`, the IC50 was below 10 µM.

Regarding `Cc1c(F)cc(C(=O)NC2CC2)cc1-c1ccc(C(=O)N2CCC(C)CC2C)cn1` (centres undefined), the IC50 was below 10 µM. In the case of `COc1cccc(CNC(=O)c2ccc(-c3cc(NC(=O)c4ccoc4)ccc3C)nc2)c1` it was below 10 µM; in that of `Cc1ccc(C(=O)NC2CC2)cc1-c1ccc(C(=O)NCc2cccc(NS(C)(=O)=O)c2)cn1`, below 10 µM. The compound `COc1ccc(NC(=O)c2ccc(-c3cc(C(=O)Nc4nccs4)ccc3C)nc2)cc1` gave an IC50 below 10 µM. In the case of `COc1cccc(CNC(=O)c2ccc(-c3cc(C(=O)Nc4nncs4)ccc3C)nc2)c1` it was below 10 µM; in that of `Cc1c(F)cc(C(=O)NC2CC2)cc1-c1ccc(C(=O)NCC(C)C(F)(F)F)cn1` (centres undefined), below 10 µM. The same measure for `CCC1(CC)CN(C(=O)c2ccc(-c3cc(C(=O)NC4CC4)cc(F)c3C)nc2)C1`: below 10 µM. The same measure for `CCC(C)(C)NC(=O)c1ccc(-c2cc(C(=O)NC3CC3)cc(F)c2C)nc1`: below 10 µM.

Usually IC50 stands for the concentration needed to halve the response being measured. A higher IC50 goes with lower potency.

For the origin of these results see the Kinase Knowledgebase extract (Sharma et al. 2016).
